Data: US6355614B1, “Cyclic boroproline compounds” (Point Therapeutics, priority 1998, dated 2002)

Assay: Conformational equilibrium of open chain and cyclic forms in aqueous solution (from apparent Ki at equilibrium vs true Ki)
Assay type: physicochemical
Settings: at equilibrium at pH 7.0
Description: See FIG. 3 which is a diagram showing the structures of the open and cyclized forms of Xaa-boroPro inhibitors (conformational equilibrium of Xaa-boroproline inhibitors). The open, active, inhibitory chain species is favored at low pH while the cyclized structure is favored at neutral pH. The reaction is fully reversible: the open chain becomes predominant at low pH. The open chain to cyclic species reaction involves a trans to cis isomerization of the proline and the formation of a new N—B bond. […] G. Gutheil and W. W. Bachovchin, Separation of L-Pro-DL-boroPro into Its Component Diastereomers and Kinetic Analysis of Their Inhibition of Dipeptidyl Peptidase IV. A New Method for the Analysis of Slow, Tight-Binding Inhibition, Biochemistry 32, 8723-8731 (1993)).

SMILES	fraction existing as the open chain, inhibitory species
O=C(C1CCCN1)N1CCCC1B(O)O (centres unmarked) [Pro-boroPro]	less than 1%
CC(C)C(N)C(=O)N1CCCC1B(O)O (centres unmarked) [Val-boroPro]	less than 0.1%
